One block for each compound: values may come before it.
Legend:
[1] = target: T1, TarH (TarGH nucleotide binding domain) (Staphylococcus aureus, UniProt Q2FJ01); experiment: cryo-EM structure at […] Å
T1 construct: gene tagH; full-length TarH (residues 1–264) in TarG2H2 heterotetramer; with TarG (A0A0H2XIF1)

[2] = target: T2, TarG (TarGH WTA transporter, transmembrane domain) (Staphylococcus aureus, UniProt A0A0H2XIF1); experiment: cryo-EM structures ([…] Å with AMP-PNP; […] Å with ATPγS), MST; IC50 from malachite green ATPase assay of purified TarGH; format: biochemical
T2 construct: gene tagG; full-length TarG with N-terminal His tag, co-expressed with TarH (residues 1–264) as TarG2H2 heterotetramer; with TarH (Q2FJ01)

[3] = target: T1, TarH (TarGH nucleotide binding domain); experiment: malachite green ATPase assay of purified TarGH (Michaelis-Menten); format: biochemical

Compound: Nc1ncnc2c1ncn2[C@@H]1O[C@H](CO[P@](=O)(O)O[P@](=O)(O)O[P@@](=O)(O)S)[C@@H](O)[C@H]1O [ATPγS]
cryo-EM structure at 2.3 Å [1]: ATPγS is well resolved at the TarH dimer interface, forming characteristic interactions with the ABC motifs

IC50 [2]: 6.5 ± 1.2 µM
Compound: Cc1c(CC(=O)N2CCC[C@H]2C(=O)O)c(=O)oc2c(C)c3occ(-c4ccc(Cl)cc4)c3cc12 [targocil-II]

Compound: Nc1ncnc2c1ncn2[C@@H]1O[C@H](COP(=O)(O)OP(=O)(O)OP(=O)(O)O)[C@@H](O)[C@H]1O [ATP]
malachite green ATPase assay of purified TarGH (Michaelis-Menten) [3]: ~ 70 mol Pi/min mol protein
